The results in this text go back to paper PMC8467532, “DYRK1A Kinase Inhibitors Promote β-Cell Survival and Insulin Homeostasis” (Cells, 2021).

Data set [1] has as its system INS-1E and MIN6 cells. Briefly: MTT cytotoxicity and cell survival assay, β-cell lines.
The test system of data set [2] is INS-1E and MIN6 cells. Nature of the data set: GSIS and insulin, C-peptide, glucagon staining (flow cytometry, confocal). The format is cell-based, rat, mouse. Set-up: key to insulin+ / glucagon+ / C-peptide+: ↑: moderate; ↑↑: most potent. On the procedure:
Cells were cultured in a low glucose medium (5.5 mM) for 24 h. After this medium was changed to lower glucose medium (2 mM) for 2 h and then for high glucose medium (25 mM) for 30 min, media were harvested and/or cells were used for further analysis.
The presence of insulin, glucagon, C-peptide, Ki67, and DYRK1A was assessed in MIN6 and INS-1E pancreatic cell lines. Before imaging, cells were seeded onto slides at a density of 1 × 10^5 cells and maintained at 37 °C in 95% atmospheric air and 5% CO2 in a humidified atmosphere for 24 h. After washing with fresh medium, cells were incubated with 5 µM inhibitor solution for 24 h. After this time, the solution was replaced with a culture medium for another 48 h. The cells were fixed. Then after washing and permeabilization, they were incubated with specific antibodies diluted in PBS. Next, the cells were incubated for 10 min with Hoechst33342 (Sigma-Aldrich). After incubation, at 37 °C, in the dark, the cells were washed twice with HBSS (Gibco), the slide was transferred to a microscope table, and the cells were visualized under a Zeiss LSM 880 confocal microscope (Carl Zeiss, Jena, Germany) with a 63× immersion objective. Images were analyzed by Zeiss ZEN Software.
The presence of insulin, glucagon, C-peptide, Ki67 and DYRK1A was assessed in MIN6 and INS-1E pancreatic cell lines. Before analysis, cells were seeded onto slides at a density of 1 × 10^5 cells and maintained at 37 °C in 95% atmospheric air and 5% CO2 in a humidified atmosphere for 24 h. After washing with fresh medium, cells were incubated with 5 µM inhibitor solution for 24 h. After this time, the solution was replaced with a culture medium for another 48 h. The cells were then detached from the plate using trypsin. The cells were fixed. Then after washing and permeabilization, they were incubated with specific antibodies diluted in PBS. Cells were analyzed with BDAccuri flow cytometer and calculated using FlowJo software (Ashland, Oregon-based FlowJo LLC, a subsidiary of Becton Dickinson).

Data set [3] deals with INS-1E and MIN6 cells. Nature of the data set: Ki67 proliferation analysis. The format is cell-based, rat, mouse.
Data set [4] concerns isolated mouse islets. Briefly: Insulin secretion assay in isolated mouse islets (ELISA, immunostaining). The format is cell-based. Also on record: key to insulin secretion (ELISA): ↑: moderate; ↑↑: most potent. On the procedure: The Insulin ELISA (Ultra Sensitive) was used to quantify insulin levels in control and treated organoids and isolated islets from the mouse pancreas (Crystal Chem, Downers Grove, IL, USA). Islets were homogenized in lysis buffer. Obtained buffer lysates and medium samples (after GSIS) were analyzed for total protein level and subsequently processed following the manufacturer’s protocol.
Mice (male, initially 12 weeks old) were sacrificed by cervical vertebral dislocation. Before starting the incision, their bodies were sprayed with 70% EtOH. A hemostatic clamp was placed on both sides of the small intestine, leaving a small pocket to absorb the collagenase solution into the intestine. Next, 3 mL of cold collagenase solution was introduced into the pancreas through the bile duct. The pancreas was removed from the body and placed in a falcon tube containing 2 mL of collagenase solution. The tube was placed in a water bath at 37 °C. It was incubated for 13 min. At the end of this time, the falcon was shaken vigorously. The collagenase was inactivated with FBS. The sample was centrifuged for 30 s (300× g). This step was repeated 3 times. HBSS was then added to the sample and centrifuged two more times at the same speed as before. After the last centrifugation, HBSS was removed and Percoll (1.045 g/mL) (Sigma-Aldrich) was added. The Percoll solution was left to sediment for 5 min. After this time, the islets were collected from the bottom of the falcon. The step was repeated 3 times. Finally, islets were cultured in RPMI-1640 (Pan Biotech) supplemented with 2 mM L-glutamine (Gibco), 10% fetal bovine serum (FBS) and 1% penicillin/streptomycin and the culture medium was changed daily.
The presence of insulin, C-peptide, glucagon, Pdx-1 and Nkx6.1 was assessed in isolated mouse islets. Islets were fixed in PFA (3.8%) for 30 min, washed with PBS and 0.15% Triton X-100 was added for 1.5 h, then washed again with PBS and samples were transferred to 1% BSA + 0.05% Triton X-100 solution for 3 h. After this time, islets were incubated with primary antibody for 12 h at 4 °C. The secondary antibody was then added for 3 h. Next, the islets were incubated for 10 min with Hoechst33342. After incubation, at 37 °C, in the dark, the samples were washed twice with HBSS, the slide was transferred to a microscope table and the cells were visualized under a Zeiss LSM 880 confocal microscope (Carl Zeiss, Jena, Germany) with a 63× immersion objective. Images were analyzed by Zeiss ZEN Software.

The mark [5] stands for this setting: combination with TGF-β inhibitors.
Where [6] appears, read: high glucose, day 4 after treatment.

Consider `O=c1ccc2cnc3ccc(-c4cn[nH]c4)cc3c2n1-c1ccc(F)cc1C(F)(F)F` [AC27, 1-(4-fluoro-2-(trifluoromethyl)phenyl)-9-(1H-pyrazol-4-yl)benzo[h][1, 6]naphthyridin-2-one], for which, in data set [1] (MTT, 24 h), the “concentration without significant toxic effects” value is on record as “up to 5 μM”. Moreover, the toxicity entry in data set [1] (Table 2, Cell lines) is “no”. Also, the glucagon level result in data set [2] (5 μM, compound alone) is recorded as “balanced (lower) glucagon level”. The insulin/C-peptide secretion entry in data set [2] (GSIS, compound alone) was “higher insulin/C-peptide secretion”. For the same molecule, in data set [2] (Table 2, Cell lines), the “C-peptide+” value is reported as “↑↑”, the “glucagon+” value is recorded as “↑” and the “insulin+” value is given as “↑↑”. For the same molecule, the “time the effect remained stable” value in data set [2] (after inhibitor action) is “up to 12 days”. For the same molecule, in data set [2] (setting [5]), the “glucagon level after GSIS” value is given as “reduced” and the insulin/C-peptide secretion result is “markedly improved”. For the same molecule, the “increase in insulin expression” value in data set [2] (discussion statement) is on record as “more than 60%”. The “induction of β-cell proliferation (Ki67 labeling of insulin-labeled cells)” value in data set [3] (5 μM, vs untreated cells) is recorded as “most potent in inducing β-cell proliferation”. Further, the “Ki67 labeling index in β-cells” value in data set [3] (combined with RepSox or LY364947) is “significant increase in the Ki67 labeling index”. Also, the “Ki67 labeling index, difference to that without TGF-β inhibition” value in data set [3] (combined with TGF-β inhibitors) was “about 5%”. Also, the “Ki67 labeling index (proliferation rate)” value in data set [3] (combined with TGF-β inhibitors (RepSox, LY364947), 5 μM each) is reported as more than 12%. In addition, the “insulin secretion (ELISA)” value in data set [4] (Table 2, Isolated islets) was “↑↑”. In data set [4] (after GSIS), the “insulin secretion compared with untreated islets” value is recorded as “significantly higher”. Besides, in data set [4] (setting [6]), the “increase in insulin secretion compared with control islets” value amounted to 60% and the “insulin secretion, higher than with harmine” value is “ca. 15%”. The “percentage of total insulin released” value in data set [4] (secretion normalized for total insulin content) is recorded as “higher”.
